The target of assay [1] is T1, NAD-dependent protein deacetylase sirtuin-3, mitochondrial (Homo sapiens, UniProt Q9NTG7).
T1 sequence (Q9NTG7 whole entry): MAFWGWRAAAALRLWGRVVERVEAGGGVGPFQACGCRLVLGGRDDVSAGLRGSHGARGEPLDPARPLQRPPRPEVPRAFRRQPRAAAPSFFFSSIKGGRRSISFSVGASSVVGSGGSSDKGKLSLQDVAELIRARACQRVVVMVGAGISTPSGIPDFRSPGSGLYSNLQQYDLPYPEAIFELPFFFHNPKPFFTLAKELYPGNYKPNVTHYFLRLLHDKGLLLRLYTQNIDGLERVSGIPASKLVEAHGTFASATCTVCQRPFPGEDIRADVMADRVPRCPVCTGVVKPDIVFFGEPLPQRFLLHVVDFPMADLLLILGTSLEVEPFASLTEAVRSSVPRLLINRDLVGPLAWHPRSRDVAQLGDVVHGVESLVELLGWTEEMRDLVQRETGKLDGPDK
As to the kind of experiment: Binding affinity to human Sirt3 (118 to 399 residues) assessed as dissociation constant using acetylated MnSOD peptide as substrate by microscale thermophoresis analysis. Background: MST reads how a fluorescent partner responds to local heating, with and without ligand.

For assay [2], the target named is T1, NAD-dependent protein deacetylase sirtuin-3, mitochondrial. As to the kind of experiment: Binding affinity to human Sirt3 (118 to 399 residues) assessed as dissociation constant using acetylated MnSOD peptide as substrate in presence of honokiol by microscale thermophoresis analysis.
Assay [3] has the same target. As to the kind of experiment: Binding affinity to human Sirt3 (118 to 399 residues) assessed as dissociation constant of ternary complex using acetylated MnSOD peptide as substrate in presence of OAADPr by microscale thermophoresis analysis.
Assay [4] has the same target. In words: Binding affinity to human Sirt3 (118 to 399 residues) assessed as dissociation constant using 625nM acetylated MnSOD peptide as substrate by microscale thermophoresis analysis.
For assay [5], the target named is T2, NAD-dependent protein deacetylase sirtuin-3, mitochondrial (Homo sapiens) (UniProt Q9NTG7).
T2 sequence (whole entry): T1 sequence (Q9NTG7 whole entry)
In words: Modulation of human Sirt3 (118 to 399 residues) deacetylation activity under non-steady state assessed as substrate deacetylation at low enzyme concentration with [E]0/[NAD+]0 ratio of 0.3 at 10 uM incubated for 2 mins using MnSOD peptide as substrate in presence of NAD+ by HPLC-assay relative to control. Conditions: filed as modulator.

In assay [6] the target is T1, NAD-dependent protein deacetylase sirtuin-3, mitochondrial. In words: Binding affinity to human Sirt3 (118 to 399 residues) assessed as dissociation constant of ternary complex using acetylated MnSOD peptide as substrate in presence of OAADPr by short DNA nano levers based switchSENSE microfluid bio-chip analysis.
Assay [7] has the same target. In words: Binding affinity to human Sirt3 (118 to 399 residues) assessed as dissociation constant (Koff) by short DNA nano levers based switchSENSE microfluid bio-chip analysis.
Assay [8] has the same target. As to the kind of experiment: Modulation of human Sirt3 (118 to 399 residues) deacetylation activity under non-steady state assessed as substrate deacetylation at low enzyme concentration with [E]0/[NAD+]0 ratio of 0.1 incubated for 5 mins using MnSOD peptide as substrate in presence of NAD+ by HPLC-assay relative to control.
Assay [9] has the same target. As to the kind of experiment: Binding affinity to human Sirt3 (118 to 399 residues) assessed as dissociation constant (Koff) of ternary complex using acetylated MnSOD peptide as substrate in presence of OAADPr by short DNA nano levers based switchSENSE microfluid bio-chip analysis.
The target in assay [10] is T2, NAD-dependent protein deacetylase sirtuin-3, mitochondrial (Homo sapiens). As to the kind of experiment: Modulation of human Sirt3 (118 to 399 residues) deacetylation activity under non-steady state assessed as substrate deacetylation at low enzyme concentration with [E]0/[NAD+]0 ratio of 0.1 at 10 uM incubated for 2 mins using MnSOD peptide as substrate in presence of NAD+ by HPLC-assay relative to control. Conditions: filed as modulator.

For assay [11] the target is unchanged. As to the kind of experiment: Modulation of human Sirt3 (118 to 399 residues) deacetylation activity under non-steady state assessed as substrate deacetylation at high enzyme concentration with [E]0/[NAD+]0 ratio of 0.6 at 10 uM incubated for 2 mins using MnSOD peptide as substrate in presence of NAD+ by HPLC-assay relative to control. Conditions: filed as modulator.

A value given as a limit tells only on which side of the number the result lay.

With `NC(=O)c1ccc[n+]([C@@H]2C[C@H](COP(=O)(O)OP(=O)(O)OC[C@H]3O[C@@H](n4cnc5c(N)ncnc54)[C@H](O)[C@@H]3O)[C@@H](O)[C@H]2O)c1`, the Kd worked out at 7.3 µM in [1] and 6.6 µM in assay [2].

Consider `C=CCc1ccc(O)c(-c2ccc(O)c(CC=C)c2)c1` [HONOKIOL], for which the Kd in assay [3] came out at 0.29 µM; in assay [4], 2.99 µM; in [1], 0.97 µM. For the same compound, the Activity in assay [5] was determined as 108%.

Turning to `CCCCNC(=O)COc1ccc2c(c1)CCc1ccccc1C2NC(=O)CCCOc1cc([N+](=O)[O-])c(C(C)O)cc1OC` (stereo not given), the figures for the Kd in [6], in assay [7] and in assay [9] were 12.6 µM, 0.22 s⁻¹ and 0.162 s⁻¹, respectively. Besides, in assay [8], the EC50 is under 5 µM.

Regarding `Cc1ccc(-c2nc3n(n2)C(=O)CC(c2cccc4ccccc24)S3)cc1` (stereo not given), the Activity came out at 114% in assay [10] and 127% in [11].

As for `CCCCNC(=O)[C@@H](Cc1ccc(Cl)cc1)NC(=O)CSC(=S)c1ccccc1`, the Activity in [5] was 100%.

For `C=C(CC)C(=O)c1ccc(OCC(=O)N[C@H](Cc2ccc(Cl)cc2)C(=O)NCCCC)c(Cl)c1Cl`, the Activity in assay [11] was found to be 107%; in assay [5], 104%.

One may read the EC50 as the concentration at which the effect is half-maximal.

Values taken from ChEMBL document CHEMBL5214958, “Discovery of novel compounds as potent activators of Sirt3” (Bioorg Med Chem, 2022).
